Molecular target: T1, human bradykinin B1 receptor (Homo sapiens, UniProt P46663)
T1 construct: expressed in transfected cells; membranes
T1 sequence (P46663 1-353): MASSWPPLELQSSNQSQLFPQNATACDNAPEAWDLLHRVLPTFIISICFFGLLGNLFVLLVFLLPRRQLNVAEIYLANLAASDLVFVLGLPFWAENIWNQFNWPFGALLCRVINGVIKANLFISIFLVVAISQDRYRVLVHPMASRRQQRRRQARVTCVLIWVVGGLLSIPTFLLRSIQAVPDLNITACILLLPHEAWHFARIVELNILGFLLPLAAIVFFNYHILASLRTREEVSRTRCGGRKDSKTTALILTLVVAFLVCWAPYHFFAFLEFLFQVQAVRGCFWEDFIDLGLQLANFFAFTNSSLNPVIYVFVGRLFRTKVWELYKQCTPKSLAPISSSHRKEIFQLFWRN
Test: Test I: Bradykinin Receptor Binding Assay ([3H]desArg10-kallidin displacement, HEK 293 membranes)
Settings: statement in words
Method: This cDNA is sequenced and subcloned into pcDNA3 (Clontech) and used to generate a cell-line which expresses the human bradykinin B1 receptor.
Cells are grown in Mininum Essential Medium with Eade's Salts (GIBCO) supplemented with 2 mM L-glutamine, 100 units/ml penicillin, 100 μg/ml streptomycin, 1% nonessential amino acids and 10% myodone foetal calf serum (GIBCO) in a humidified atmosphere with 5% CO2 at 37° C.
One 175 cm^2 flask with approximately 50% confluent cells is transfected with approximately 30 μg/ml HB1-pcDNA3 DNA using the calcium phosphate precipitate method of transfection. The flask of transfected cells is split 1:3 on day 2 post transfecdon to prevent overgrowth. The following day the cells are split 1:5 and selection in 700 μg/ml G418 begins. The selective medium is changed every 3-4 days. When distinct G418 resistant colonies of transfected cells are seen, approximately 4 weeks after transfection, the cells are cloned by limiting dilution and assayed for binding of [^3H]desArg^10-kallidin. […]
Specific binding to the bradykinin B1 receptor is defined as the difference between that found in total bound tubes and that found in non-specific binding tubes. […] Mimoscintillant-40 Liquid scintillant is added to the filters and radioactivity bound is determined in a Canberra Packard Topcount scintillation counter. […]

## CC(C)N1CCN(C(=O)C2CCN(S(=O)(=O)c3ccc(NCC(c4ccccc4)c4ccccc4)c(C(=O)N4CCOCC4)c3)CC2)CC1 [Example 1, {2-(2,2-diphenyl-ethylamino)-5-[4-(4-Isopropyl-piperazine-1-carbonyl)-piperidine-1-sulfonyl]-pheny}-morpholin-4-yl-methanone]
  active at the human B1 bradykinin receptor: active

— US6958331B1, “Bradykinin receptor antagonists” (Novartis AG, priority 1999, dated 2005)
